Consider 85 compounds from PubChem BioAssay AID2305 (GlaxoSmithKline (GSK), 2010).

The test system of this experiment is P. falciparum 3D7 growth, pLDH absorbance. The experiment can be described thus: blood-stage malaria parasite growth potency – strain 3D7, dose response (AID 2305).
`Fc1cc(Cl)ccc1Nc1ccnc2cc(-c3ccc(CN4CCNCC4)o3)ccc12` yielded an IC50 of 0.28 µM. As for `COc1ccc(NC(=O)/C=C/c2cc(F)cc(C(F)(F)F)c2)cc1OCCN(C(C)C)C(C)C`, the figure is 0.67 µM; as for `COc1ccc(Cn2c(Nc3cccc(C(F)(F)F)c3)nc3ccc(C(=O)NCCN4CCCC4)cc32)cc1Cl`, 0.75 µM. In turn, `Cc1cccc2[nH]c(-c3ccc(-c4cccc(CN5CCN(c6ccncc6)CC5)c4)cc3)nc12` yielded an IC50 of 0.12 µM.

The compound `CC(=O)Nc1nc(C(=O)Nc2cccc(-c3cccc(-c4nc5ccccc5[nH]4)c3)c2)cs1` had an IC50 of 0.17 µM.

Compound `Cc1cc(NC(=O)c2sc3ccccc3c2O)no1` yielded an IC50 of 0.81 µM.

Compound `O=C(Nc1ccc(Cl)c(Cl)c1)N1CCc2cc3nccc(N4CCN5CCC[C@H]5C4)c3cc21` displayed an IC50 of 0.63 µM. In the case of `COc1ccccc1C1CCN(Cc2csc(NC(=O)c3ccc(-c4ccc(C(F)(F)F)cc4)cc3)n2)CC1` it was 0.95 µM. Consider `Cc1cc2nc(-c3ccc(/C=C/C(=O)NCCc4ccccc4)cc3)[nH]c2cc1C`, for which the IC50 was 0.78 µM. In the case of `COc1ccc(Nc2nccc(NCCNC(=O)Nc3cc(C)ccc3C)n2)cc1`, the half-maximal inhibitory concentration (IC50) turned out to be 1.05 µM. In turn, `COc1nc2c(CCN3CCC(NCc4ccc5c(c4)NC(=O)CO5)CC3)c(Cl)cnc2cc1F` returned a 50% inhibitory concentration (IC50) of 0.77 µM. As for `COc1ccc2nccc([C@@H](O)CN3[C@@H]4CC[C@H]3CC(NCc3ccc5c(n3)NC(=O)CS5)C4)c2n1` (stereo not given in full), the figure is 0.93 µM; as for `c1cc(CN2CCCCC2)cc(-c2ccc(-c3nc4ccccc4[nH]3)s2)c1`, 0.87 µM; as for `CC(=O)Nc1cccc(C(=O)Nc2cccc(-c3ccc(-c4nc5c(C)cccc5[nH]4)s3)c2)c1`, 0.77 µM. `C[C@@H]1CC[C@H](NC(=O)[C@H](CC2CCCC2)NC(=O)N2CCNCC2)C(=O)CN1S(=O)(=O)c1ccccn1` returned a concentration for half-maximal inhibition (IC50) of 0.89 µM. In the case of `COc1cccc(-c2ccc(C(=O)NC3CCN(Cc4ccc(N(C)C)cc4)CC3)s2)c1` it was 1.39 µM; in that of `CCn1c(-c2nonc2N)nc2cnc(Oc3cccc(NC(=O)c4ccc(OCCCN5CCCCC5)cc4)c3)cc21`, 0.93 µM; in that of `Cc1cc2nc(-c3ccc(OCC(=O)NCc4cccc(C(F)(F)F)c4)cc3)[nH]c2cc1C`, 0.99 µM.

In the case of `Cc1nc2ccc(S(=O)(=O)Nc3ccc(C(=O)N[C@@H](CCC(=O)O)C(=O)O)cc3)cc2c(=O)[nH]1`, the IC50 worked out at 1.01 µM. In the case of `COC(=O)/C=C/c1ccc(CC(C)NCC(O)c2cccc(Br)c2)cc1` (stereo not given) it was 0.72 µM. For `O=C(NC1CCC(CN2CCC(c3c[nH]c4ccccc34)CC2)CC1)c1cc2cccc([N+](=O)[O-])c2[nH]1` (stereo not given), the IC50 was determined as 0.34 µM. In the case of `O=C(NCc1ccc(Cl)c(Cl)c1)c1cccc(C2CCCN(Cc3ccc4nc[nH]c4c3)C2)c1` (stereo not given) it was 0.93 µM.

Turning to `CC(=O)Nc1ccc(Nc2ncc([N+](=O)[O-])c(Nc3ccccc3C(N)=O)n2)cc1`, the IC50 came out at 0.37 µM. Regarding `CCCCCCCc1c(C)[nH]c2ccccc2c1=O`, the IC50 amounted to 0.21 µM.

As to `CCc1sc(N2CCC(C)CC2)nc1C(=O)Nc1ccc(F)cc1C(F)(F)F`, the IC50 amounted to 1.09 µM. `CC(C)(C)Cn1cc(-c2ccc(C(=O)NCCc3ccc(S(C)(=O)=O)cc3)cc2)c(N)n1` (tested in a mixture with another compound) returned an IC50 of 0.65 µM. As for `CCC(C)NS(=O)(=O)c1ccc2nc(Nc3ccc(C)c(Cl)c3)n(C(C)C(C)C)c2c1` (stereo not given), the figure is 0.38 µM. `C[C@@H](NC(C)(C)C)[C@H](O)c1ccc(Cl)c(C(F)(F)F)c1` displayed an IC50 of 0.74 µM.

As to `CC(C)(CNC(=O)/C=C/c1ccc(Cl)c(Cl)c1)CNc1cc(=O)c2ccccc2[nH]1`, the IC50 was 0.86 µM. In the case of `Cc1cc(-c2cccc3c(C(=O)N4CCc5cc6nccc(N7CCCN(C)CC7)c6cc54)cccc23)cc(C)n1` it was 0.44 µM; in that of `c1ccc(Oc2ccc(Nc3nncc4ccccc34)cc2)cc1`, 0.69 µM. Regarding `CCCCCCNC(=O)C1Cc2c([nH]c3ccc(Br)cc23)C2(CCN(Cc3ccccc3)CC2)N1` (stereo not given), the IC50 stood at 0.72 µM.

`CCC(Cc1cnc2nc(N)nc(N)c2n1)c1ccc(C(=O)O)cc1` (stereo not given): the IC50 amounted to 0.25 µM. As for `Cn1nc(-c2ccc(CNC3CCc4ccccc43)cc2)c2cnc(NCCN3CCCC3)nc21` (stereo not given), the IC50 came to 1.35 µM. In the case of `COCCNCc1ccc(-c2ccc(CNc3ccc4ncccc4c3)cc2)cc1`, the IC50 is 1.04 µM.

Turning to `CC(NC(=O)c1ccc(O)c(-c2ccc(Cl)c(Cl)c2)c1)C(=O)NCCN1CCCCC1` (stereo not given), the IC50 was found to be 0.87 µM. For `O=C(Nc1ccccc1)Nc1ccc(-c2cccc(-c3nc4ccc(C(F)(F)F)cc4[nH]3)c2)cc1`, the IC50 came out at 0.73 µM.

Turning to `CS(=O)(=O)N1CC2(CCN(CCC(NC(=O)NCc3ccccc3Cl)c3ccc(Cl)c(Cl)c3)CC2)c2ccccc21` (stereo not given), the IC50 stood at 1.11 µM. For the compound `Cc1cccc2[nH]c(-c3ccc(-c4cccc(NC(=O)Nc5ccc6c(c5)OCO6)c4)cc3)nc12`, the IC50 turned out to be 0.74 µM.

The compound `Clc1ccc(-c2ccc(C=NNc3nc(Nc4ccccc4)nc(Nc4ccccc4)n3)o2)cc1Cl` showed an IC50 of 0.74 µM. In the case of `COc1cc(OC)cc(-c2nn(-c3ccc([N+](=O)[O-])cc3C#N)c(=S)n2CC2CCCO2)c1` (stereo not given) it was 0.85 µM; in that of `CCCC(CNCc1cccc(SC(F)(F)F)c1)CNc1cc(=O)c2ccccc2[nH]1` (stereo not given), 0.71 µM.

For the compound `Cc1cc(N[C@@H](Cc2ccccc2)C(=O)NCCOc2ccccc2)nc(NCCOc2ccccc2)n1`, the IC50 was 1.36 µM.

In the case of `CN(C)C(=O)c1ccc(CN(Cc2ccc(OC(C)(C)C)cc2)Cc2ccc3c(c2)OCCO3)cc1`, the IC50 amounted to 0.83 µM.

With `COCCNC(=O)C(CNC(=O)c1ccc2c(c1)OCO2)NC(=O)c1ccc(-c2ccccc2)cc1` (stereo not given), the IC50 is 0.97 µM.

For the compound `CC(=O)Nc1ccc(C(=O)Nc2ccc(-c3cccc(-c4nc5ccc(C(F)(F)F)cc5[nH]4)c3)cc2)cn1`, the half-maximal inhibitory concentration (IC50) is 0.11 µM.

In the case of `C(=NNc1ccnc2ccccc12)c1ccncc1`, the IC50 turned out to be 0.74 µM.

In turn, `Cc1cccc2[nH]c(-c3cccc(-c4cccc(CNC(C)C)c4)c3)nc12` returned an IC50 of 0.34 µM. As for `CC(O)C1CCCCN1C(=O)c1ccc(-c2cccc(-c3nc4ccc(F)cc4[nH]3)c2)cc1` (stereo not given), the figure is 0.54 µM; as for `Oc1ccccc1CCNCC1CCc2ccccc2C1` (stereo not given), 0.69 µM. As for `Cc1ccc(CNC(=O)[C@H](CCCN)Nc2cc(C)nc(NCC3CCCCC3)n2)cc1`, the figure is 1.22 µM; as for `CCCCOC(=O)C1=C(C)NC2=C(C(=O)CCC2)C1c1ccc(OC)c(Br)c1` (stereo not given), 0.6 µM; as for `CC(C)CNc1nc(N)nc2ccc3c(ccn3CC(C)C)c12`, 0.65 µM. For `CN(c1ccc(C(=O)N[C@@H](CCC(=O)O)C(=O)O)cc1)S(=O)(=O)c1ccc2nc(N)[nH]c(=O)c2c1`, the IC50 turned out to be 0.15 µM. As for `O=C(c1cc(C(=O)NCc2ccc(Cl)cc2)c(=O)n(Cc2ccc(Cl)cc2)c1)c1cc(Cl)ccc1O`, the figure is 1.4 µM; as for `CC1(C)N=C(N)N=C(N)N1c1ccc2ccccc2c1`, 0.05 µM; as for `Cc1nc(C)n(CC(=O)Nc2cccc(-c3cccc(-c4nc5ccc(C(F)(F)F)cc5[nH]4)c3)c2)n1`, 0.76 µM. In the case of `CC[C@H](C)CNC(=O)c1cncc(-c2ccc(CNC3Cc4ccccc4C3)cc2)c1` it was 0.83 µM; in that of `CCOC(=O)c1cn(CC)c2cc(OCc3ccccc3)ccc2c1=O`, 0.95 µM; in that of `CN1CCN(CC(=O)Nc2ccc(-c3cccc(-c4nc5ccc(F)cc5[nH]4)c3)cc2)CC1`, 0.83 µM. With `C=CCC(CC=C)N1C(=O)C(c2ccccc2)(c2ccccc2)N=C1N`, the IC50 is 0.66 µM. Take `Cc1cccc2[nH]c(-c3cccc(-c4ccc(NC(=O)CN5CCN(C)CC5)cc4)c3)nc12`: the IC50 was 0.56 µM.

As for `Cc1cc2ccccc2c(CON2C(N)=NC(N)=NC2(C)C)c1C`, the IC50 was found to be 0.01 µM. In the case of `Cc1cc(=O)c(-c2ccc(Oc3ccc(F)cc3)cc2)c(C)[nH]1`, the IC50 was found to be 0.97 µM. Compound `Cc1cccc2[nH]c(-c3cccc(-c4ccc(NC(=O)Nc5ccc6c(c5)OCO6)cc4)c3)nc12` displayed an IC50 of 0.14 µM. Regarding `Cc1nc(N)nc(N)c1-c1ccc2ccccc2c1`, the IC50 stood at 0.87 µM. As to `COc1ccc(NC(=O)/C=C/c2ccccc2Cl)cc1OCCN1CCC(c2nc3ccccc3[nH]2)CC1`, the IC50 is 0.86 µM. Compound `Fc1cccc(-c2ccc3c(c2)CC(NCc2c[nH]c4cnccc24)C3)c1` (stereo not given) had an IC50 of 0.48 µM.

Compound `CNC(=O)COc1cc(C)c(C2CCN(CCCCNC(=O)c3ccc(-c4ccc(C(F)(F)F)cc4)cc3)CC2)cc1C` had an IC50 of 0.87 µM.

Turning to `CCNc1cc(C(=O)N[C@@H](Cc2ccccc2)[C@H](O)CNC(C)(C)CCCC(C)C)cc(N2CCCCS2(=O)=O)c1`, the IC50 amounted to 0.45 µM. The compound `O=C(CSc1ccc(Cl)cc1)NC1CCC(CN2CCC(c3c[nH]c4ccccc34)CC2)CC1` (stereo not given) showed an IC50 of 0.93 µM. `CCc1ccc(C2CCN(CCCCNC(=O)c3ccc(NC(=O)c4ccc(Cl)cc4)cc3)CC2)c(OC(C)=O)c1`: the IC50 turned out to be 0.15 µM.

`CCOCn1c(-c2ccccc2)cc2c3c(N)nc(N)nc3ccc21` had an IC50 of 0.19 µM.

In turn, `Cc1cc(S(=O)(=O)N2CCCCC(c3ccc(C(F)(F)F)cc3)=N2)c(Cl)cc1Cl` displayed an IC50 of 0.5 µM. As for `NCCNS(=O)(=O)c1ccc(-c2ccnc3[nH]c(-c4ccncc4)cc23)cc1`, the figure is 0.84 µM; as for `CCCn1cnc2cc(C(=O)Nc3ccc(-c4cccc(CN(C)C)c4)cc3)ccc2c1=O`, 0.93 µM. `O=C(C=Cc1ccc(F)cc1)NC1CCC(CCN2CCc3ccc(-c4cnccn4)cc3CC2)CC1` (stereo not given) yielded an IC50 of 0.69 µM. `CN1CCN(c2cc3c(cc2Cl)CCN3C(=O)Nc2ccc(NC(=O)c3ccc(C(F)(F)F)cc3)cc2)CC1`: the IC50 stood at 0.51 µM. Take `O=C(NC1CCN(CCCOc2ccnc3cc(Cl)ccc23)C1)c1ccc(Br)cc1` (stereo not given): the IC50 came to 1.02 µM.

Compound `COc1ccc2nccc([C@@H](O)CN3CCC(NC(=O)/C=C/c4ccnc5ccccc45)CC3)c2c1` displayed an IC50 of 0.94 µM. For the compound `CCN(CCNC(=O)C1CCN(c2cc(-c3cccc(C)c3)ncn2)CC1)Cc1ccccc1`, the IC50 came to 0.17 µM. Consider `COc1cc(CN2CCC(C(=O)Nc3ccc(-c4cccc(C)c4)cc3)CC2)ccc1O`, for which the half-maximal inhibitory concentration (IC50) was determined as 1.12 µM. As for `CC(C)(C)NCC(O)COc1ccc(Cl)cc1C1=NNC(=O)CC1` (stereo not given), the figure is 0.15 µM; as for `CCOC(=O)c1c[nH]c2c(ccc3ccccc32)c1=O`, 0.16 µM; as for `Cc1[nH]nc2cc(Nc3ccnc(Nc4ccc(CN5CCOCC5)cc4)n3)ccc12`, 0.95 µM.

A word on the IC50: it is the point on the concentration scale where inhibition reaches its midpoint. The low end stands for greater potency in that assay, the high end for weaker potency in that assay.
